US20110263631A1, “COMBINATION OF A SEROTONIN AND NOREPINEPHRINE REUPTAKE INHIBITOR AND AN OPIOID AGONIST FOR THE TREATMENT OF PAIN” (priority 2010, published 2011)

What was measured:
[1] = Pharmacokinetic studies: plasma concentrations alone or in combination; details: rat; for Plasma concentrations of SNRI alone versus in combination with morphine: compound 1 3 mg/kg, duloxetine 10 mg/kg or atomoxetine 10 mg/kg IP, morphine 3 mg/kg SC or vehicle SC
rat formalin pain model = test: Rat formalin model of pain (inhibition of formalin-induced flinching); format: in vivo; details: for SNRI Dose Response ED50 (Confidence Interval): phase 2A, SNRI IP alone or plus 1 mg/kg morphine SC, 95% CI
rat SERT = molecular target: T1, rat SERT (Rattus norvegicus, UniProt P31652); test: Ex vivo SERT transporter occupancy ([3H]-citalopram association); format: in vivo; details: 1.25 h post dose, ± Standard Error; for receptor occupancy at 3 mg/kg: 3 mg/kg IP; for receptor occupancy at 10 mg/kg: 10 mg/kg IP
T1 construct: from tissue; host or cells: rat cortex or lumbar spinal cord homogenate from dosed animals
Protocol: (§1) To monitor SERT and NET transporter occupancy, an ex vivo occupancy assay was used in which the initial rate of association of a SERT- or NET-selective radioligand, respectively, to the tissue homogenates was monitored. The initial rate of association of radioligand is directly proportional to the level of free (unoccupied) transporter.
Rats were euthanized 1.25 hours post compound administration by decapitation. Following decapitation, the brain was removed and placed on to a clean metal block, on ice. A parasagittal cut was made through the entire brain, around 4 mm lateral to the midline. The lateral cortex pieces were discarded. A midsagittal cut was made through the entire length of the brain. The block of brain corresponding to each hemisphere was then placed on to the respective lateral cut surface, such that the midsagittal surface was uppermost. A single cut was made parallel to, and about 1 mm dorsal to, the corpus callosum to remove a cortex piece, which was frozen on dry ice prior to storage at −80° C. The spinal cord was harvested by hydraulic extrusion with PBS. An 18 gauge needle was inserted into the spinal column near the iliac crest and the buffer injected into the spinal column with the resultant extrusion of the spinal cord, intact. The lumbar spinal cord (approximately 1-1.5 cm in length) was rapidly dissected and frozen on dry ice prior to storage at −80° C.
The frozen tissue pieces were weighed and kept on dry ice prior to homogenization. […]
(§2) Total and non-specific binding was determined at a single concentration of radioligand (in parentheses): [^3H]-citalopram (3 nM) and [^3H]-nisoxetine (5 nM) at SERT and NET, respectively. […] Filter plates were washed six times with wash buffer (ice-cold 50 mM Tris-HCl, 0.9% NaCl, at 4° C.) to remove unbound radioactivity. Plates were dried, 35-45 μL Microscint-20 liquid scintillation fluid (Packard BioScience Co., Meriden, Conn.) was added to each well, and plates were counted in a Packard Topcount liquid scintillation counter (Packard BioScience Co., Meriden, Conn.).
Specific binding was calculated using total (in the absence of test compound) and non-specific (determined as described above) binding from the same plate as follows: specific binding=value−non-specific binding. Data then were analyzed by linear regression analysis with the GraphPad Prism Software package (GraphPad Software, Inc., San Diego, Calif.). The initial rates of association of [^3H]-citalopram or [^3H]-nisoxetine, equal to the slope of the straight line, were determined by fitting data points, specific binding (cpm) versus time (min). The average of the initial rates of [^3H]-citalopram or [^3H]-nisoxetine association from vehicle-dosed animals was calculated. […]

SERT = SERT (Rattus norvegicus, UniProt P31652); test: 3H-5-HT uptake assay in rat brain synaptosomal preparations
Description: (§3) Neurotransmitter uptake assays were used to measure inhibition of ^3H-serotonin (^3H-5-HT) and ^3H-norepinephrine (^3H-NE) uptake into cells expressing the respective human recombinant transporter (hSERT or hNET) and into rat brain synaptosomal preparations in order to determine the pIC50 values of test compounds at the human and rat monoamine transporters, respectively.
Rats were euthanized by decapitation. Rat freshly dissected cortical tissue pieces were suspended in ice-cold Sucrose Buffer at a ratio of 100 mg wet weight of tissue per 1 mL of buffer. The tissues were homogenized using a pre-chilled glass dounce homogenizer for 20 strokes. The homogenate was centrifuged at 1,000×g (10 min at 4° C.). […] Synaptosomes were resuspended in Sucrose Buffer and the protein concentration was determined by the method of Bradford (Bradford (1976) Analytical Biochemistry 72:24854) and used immediately following preparation. […]
Following a 10 minute incubation for cells (6 minute incubation for rat synaptosomes) at 37° C. with radioligand, the reactions were terminated by rapid filtration over a 96-well UniFilter GF/B plate, pretreated with 1% BSA, and washed 6 times with 650 μl wash buffer (ice cold PBS). Plates were dried, 35-45 μl of MicroScint™-20 (Perkin Elmer) added and incorporated radioactivity quantitated via liquid scintillation counting. […]

hNET = hNET (Homo sapiens, UniProt P23975); test: 3H-NE neurotransmitter uptake assay in HEK-293 cells expressing hNET
Protocol: as §3
HEK-293 derived cell lines stably-transfected with hSERT or, hNET, respectively, were grown in Dulbecco's modified Eagles Medium (DMEM) supplemented with 10% dialyzed FBS (for hSERT) or FBS (for hNET), 100 μg/ml penicillin, 100 μg/ml streptomycin, 2 mM L-glutamine and 250 μg/ml of the aminoglycoside antibiotic G418 in a 5% CO2 humidified incubator at 37° C. When cultures reached 50-80% confluence, the cells were washed thoroughly in PBS (without Ca^2+ and Mg^2+) and lifted with 5 mM EDTA in PBS. Cells were harvested by centrifugation at 1100 rpm for 5 minutes, the supernatant was discarded, and the cell pellet resuspended, by gentle trituration, in room temperature Krebs-Ringer bicarbonate buffer containing HEPES (10 mM), CaCl2 (2.2 mM), ascorbic acid (200 μM) and pargyline (200 μM), pH 7.4. The final concentration of cells in the cell suspension was 7.5×10^4 cells/ml for hSERT and 12.5×10^4 cells/ml for hNET. […]
(§4) Following a 10 minute incubation for cells (6 minute incubation for rat synaptosomes) at 37° C. with radioligand, the reactions were terminated by rapid filtration over a 96-well UniFilter GF/B plate, pretreated with 1% BSA, and washed 6 times with 650 μl wash buffer (ice cold PBS). Plates were dried, 35-45 μl of MicroScint™-20 (Perkin Elmer) added and incorporated radioactivity quantitated via liquid scintillation counting. Inhibition curves were analyzed using the GraphPad Prism Software package (GraphPad Software, Inc., San Diego, Calif.).

rat NET = molecular target: T2, rat NET (Rattus norvegicus, UniProt Q63380); test: Ex vivo NET transporter occupancy ([3H]-nisoxetine association); format: in vivo; details: lumbar spinal cord, 1.25 h post dose, ± Standard Error
T2 construct: from tissue; host or cells: rat cortex or lumbar spinal cord homogenate from dosed animals
Description: as §1
The spinal cord was harvested by hydraulic extrusion with PBS. An 18 gauge needle was inserted into the spinal column near the iliac crest and the buffer injected into the spinal column with the resultant extrusion of the spinal cord, intact. […]
as §2
Specific binding was calculated using total (in the absence of test compound) and non-specific (determined as described above) binding from the same plate as follows: specific binding=value−non-specific binding. […]

NET [2] = molecular target: NET (Rattus norvegicus, UniProt Q63380); test: 3H-NE uptake assay in rat brain synaptosomal preparations; details: Rat brain synaptosomes, 3H-NE uptake
Description: as §3
(§5) Rats were euthanized by decapitation. Rat freshly dissected cortical tissue pieces were suspended in ice-cold Sucrose Buffer at a ratio of 100 mg wet weight of tissue per 1 mL of buffer. The tissues were homogenized using a pre-chilled glass dounce homogenizer for 20 strokes. The homogenate was centrifuged at 1,000×g (10 min at 4° C.). The pellet was discarded and the resulting supernatant was centrifuged at 10,000×g (20 min at 4° C.) to obtain the crude synaptosomal pellet. Synaptosomes were resuspended in Sucrose Buffer and the protein concentration was determined by the method of Bradford (Bradford (1976) Analytical Biochemistry 72:24854) and used immediately following preparation.
(§6) Neurotransmitter uptake assays were performed in a 96-well assay plate in a total volume of 400 μg containing 1.5×10^4 and 2.5×10^4 cells, for SERT and NET, respectively or 10 μg cortical synaptosomal protein in assay buffer (Krebs-Ringer bicarbonate buffer containing HEPES (10 mM), CaCl2 (2.2 mM), ascorbic acid (200 μM) and pargyline (200 μM), pH 7.4). […]
as §4

NET [3] = test: as above
Description: as §3, §5, §6, §4

hSERT = hSERT (Homo sapiens, UniProt P31645); test: 3H-5-HT neurotransmitter uptake assay in HEK-293 cells expressing hSERT
Sequence of hSERT (P31645 whole entry): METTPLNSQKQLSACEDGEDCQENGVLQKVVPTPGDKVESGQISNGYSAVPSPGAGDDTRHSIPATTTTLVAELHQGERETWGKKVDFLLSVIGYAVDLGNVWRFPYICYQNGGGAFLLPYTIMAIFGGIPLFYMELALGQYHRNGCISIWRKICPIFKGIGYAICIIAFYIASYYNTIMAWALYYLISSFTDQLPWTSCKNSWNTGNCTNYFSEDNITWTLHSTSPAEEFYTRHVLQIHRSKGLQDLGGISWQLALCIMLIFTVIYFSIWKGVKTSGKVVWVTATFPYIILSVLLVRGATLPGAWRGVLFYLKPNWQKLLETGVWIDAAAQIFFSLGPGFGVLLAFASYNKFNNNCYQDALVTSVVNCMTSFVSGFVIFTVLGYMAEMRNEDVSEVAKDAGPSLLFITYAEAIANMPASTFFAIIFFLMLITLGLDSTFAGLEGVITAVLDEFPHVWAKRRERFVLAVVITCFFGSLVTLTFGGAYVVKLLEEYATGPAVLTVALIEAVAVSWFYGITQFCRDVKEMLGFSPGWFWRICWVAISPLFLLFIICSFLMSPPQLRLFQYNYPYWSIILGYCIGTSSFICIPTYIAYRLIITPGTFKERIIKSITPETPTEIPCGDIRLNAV
Protocol: as §3
HEK-293 derived cell lines stably-transfected with hSERT or, hNET, respectively, were grown in Dulbecco's modified Eagles Medium (DMEM) supplemented with 10% dialyzed FBS (for hSERT) or FBS (for hNET), 100 μg/ml penicillin, 100 μg/ml streptomycin, 2 mM L-glutamine and 250 μg/ml of the aminoglycoside antibiotic G418 in a 5% CO2 humidified incubator at 37° C. […]
as §4

T1 sequence (P31652 whole entry): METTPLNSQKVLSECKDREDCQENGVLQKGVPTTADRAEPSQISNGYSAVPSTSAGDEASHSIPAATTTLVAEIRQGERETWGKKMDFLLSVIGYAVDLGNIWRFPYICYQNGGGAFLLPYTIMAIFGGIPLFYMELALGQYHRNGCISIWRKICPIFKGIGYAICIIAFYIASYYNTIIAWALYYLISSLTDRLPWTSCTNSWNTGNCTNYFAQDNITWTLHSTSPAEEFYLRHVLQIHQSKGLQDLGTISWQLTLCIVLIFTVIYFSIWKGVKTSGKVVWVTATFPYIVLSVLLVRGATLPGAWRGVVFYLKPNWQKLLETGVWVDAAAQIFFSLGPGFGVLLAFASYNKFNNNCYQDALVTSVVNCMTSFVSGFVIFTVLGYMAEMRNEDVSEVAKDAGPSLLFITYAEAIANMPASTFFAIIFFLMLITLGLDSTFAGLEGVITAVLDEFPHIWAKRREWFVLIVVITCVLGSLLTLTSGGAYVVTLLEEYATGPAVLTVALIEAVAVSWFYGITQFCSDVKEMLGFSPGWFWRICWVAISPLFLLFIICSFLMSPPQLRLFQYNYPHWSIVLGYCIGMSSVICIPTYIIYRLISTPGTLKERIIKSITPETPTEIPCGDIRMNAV
Sequence of hNET (P23975 whole entry): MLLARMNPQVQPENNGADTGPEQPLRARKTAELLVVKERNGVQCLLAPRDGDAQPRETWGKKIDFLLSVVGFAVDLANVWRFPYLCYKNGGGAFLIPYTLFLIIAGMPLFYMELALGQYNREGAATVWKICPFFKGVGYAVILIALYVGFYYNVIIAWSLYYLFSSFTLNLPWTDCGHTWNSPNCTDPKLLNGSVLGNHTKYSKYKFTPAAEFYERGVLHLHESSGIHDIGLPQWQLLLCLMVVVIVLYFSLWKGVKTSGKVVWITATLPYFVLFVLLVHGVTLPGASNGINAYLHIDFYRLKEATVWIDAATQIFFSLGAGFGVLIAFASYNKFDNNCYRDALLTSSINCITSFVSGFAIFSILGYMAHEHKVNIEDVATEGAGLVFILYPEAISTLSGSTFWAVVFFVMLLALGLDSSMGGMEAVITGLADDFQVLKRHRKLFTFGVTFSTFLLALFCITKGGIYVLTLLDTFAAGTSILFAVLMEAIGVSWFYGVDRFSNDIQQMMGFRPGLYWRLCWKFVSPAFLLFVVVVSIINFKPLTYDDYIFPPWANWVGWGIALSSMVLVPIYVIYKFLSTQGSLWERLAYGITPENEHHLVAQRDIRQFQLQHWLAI
T2 sequence (Q63380 1-617): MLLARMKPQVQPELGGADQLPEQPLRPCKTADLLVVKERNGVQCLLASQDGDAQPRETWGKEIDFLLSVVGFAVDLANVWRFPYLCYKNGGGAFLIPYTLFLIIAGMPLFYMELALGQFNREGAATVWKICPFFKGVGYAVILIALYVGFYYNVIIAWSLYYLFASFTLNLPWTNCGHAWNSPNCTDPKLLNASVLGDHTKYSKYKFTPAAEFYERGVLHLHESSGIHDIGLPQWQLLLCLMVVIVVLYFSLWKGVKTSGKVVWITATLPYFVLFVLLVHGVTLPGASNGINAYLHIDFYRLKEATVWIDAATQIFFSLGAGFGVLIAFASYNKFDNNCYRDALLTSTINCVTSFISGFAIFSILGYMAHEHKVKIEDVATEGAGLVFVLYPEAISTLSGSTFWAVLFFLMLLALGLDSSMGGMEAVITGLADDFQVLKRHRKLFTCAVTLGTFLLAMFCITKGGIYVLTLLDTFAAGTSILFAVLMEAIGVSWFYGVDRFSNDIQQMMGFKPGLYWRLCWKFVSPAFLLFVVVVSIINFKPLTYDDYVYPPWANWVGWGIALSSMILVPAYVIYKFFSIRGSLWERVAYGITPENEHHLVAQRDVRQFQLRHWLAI
Sequence of SERT (P31652 whole entry): as the sequence (P31652 whole entry) above
Sequence of NET (Rattus norvegicus, UniProt Q63380) (Q63380 1-617): as the sequence (Q63380 1-617) above

CNCC[C@@H](Oc1ccccc1C)c1ccccc1 [Atomoxetine, atomoxetine, reference compound]
Plasma concentrations of SNRI alone versus in combination with morphine [1]: equivalent
SNRI Dose Response ED50 (Confidence Interval) (rat formalin pain model; rat formalin model): 24.4 (14.5-41.1) (n = 6-12) mg/kg
receptor occupancy at 3 mg/kg (rat SERT; cortex): 35 ± 9%
receptor occupancy at 10 mg/kg (rat SERT; cortex): 64 ± 5%

Fc1cc(F)c(OCc2ccccc2C2CCNCC2)c(F)c1 [Compound 1, 4-[2-(2,4,6-trifluoro-phenoxymethyl)-phenyl]-piperidine]
IC50 (SERT): 12.6 nM
IC50 (hNET): 2.51 nM
NET selectivity (hNET): 4
selectivity for NET (ratio of SERT to NET IC50 values) (hNET; human recombinant cell-based assay): about 4 fold
receptor occupancy at 3 mg/kg (rat NET; 3 mg/kg IP): 77 ± 15%
receptor occupancy at 10 mg/kg (rat NET; 10 mg/kg IP): 81 ± 6%
Plasma concentrations of SNRI alone versus in combination with morphine [1]: equivalent
NET pIC50 (NET [2]): 8.9
NET selectivity (NET [3]; Rat brain synaptosomes, 10**(NET pIC50 − SERT pIC50)): 10
selectivity for NET (ratio of SERT to NET IC50 values) (NET [3]; rat brain synaptosomal preparations): about 10 fold
inhibition at 10 mg/kg (rat formalin pain model; Rattus norvegicus, single administration of 10 mg/kg compound 1 IP, mean±SEM, read-out: inhibition of flinching behavior): 20 ± 7%
pain behavior during phase 1 (rat formalin pain model; first 10 minutes post formalin injection (acute pain processing)): Decreases in pain behavior were also observed
SNRI Dose Response ED50 (Confidence Interval) (rat formalin pain model; rat formalin model): 20.0 (14.0-28.4) mg/kg
interaction with morphine (shift of morphine dose response curve) (rat formalin pain model; rat formalin model, 3 mg/kg IP compound 1 plus morphine SC, 3 mg/kg): failed to significantly shift the morphine dose response curve
interaction with oxycodone (ED50 shift, isobolographic analysis) (rat formalin pain model; rat formalin model, 10 mg/kg IP compound 1 plus oxycodone SC): synergistic interaction
interaction with morphine (ED50 shift, isobolographic analysis) (rat formalin pain model; rat formalin model, compound 1 or atomoxetine 10 mg/kg IP, duloxetine 3, 5 or 10 mg/kg IP, morphine SC): synergistic interaction
IC50 (hSERT): 10 nM
receptor occupancy at 3 mg/kg (rat SERT; lumbar spinal cord): 23 ± 14%
receptor occupancy at 10 mg/kg (rat SERT; lumbar spinal cord): 46 ± 20%

CNCC[C@H](Oc1cccc2ccccc12)c1cccs1 [Duloxetine, duloxetine, reference compound]
morphine sparing effect (rat formalin pain model; duloxetine 5 mg/kg IP co-administered with ondansetron 3 mg/kg IP, with morphine 1 mg/kg SC): a morphine sparing effect was observed
inhibition of flinching behavior (in words) (rat formalin pain model; single administration of 10 mg/kg duloxetine): significant inhibition of flinching behavior

CN1CC[C@]23c4c5ccc(O)c4O[C@H]2[C@@H](O)C=C[C@H]3[C@H]1C5 [Morphine, morphine, reference compound]
inhibition at 1 mg/kg (rat formalin pain model; Rattus norvegicus, sc, read-out: inhibition of flinching behavior): 13 ± 11%

COc1ccc2c3c1O[C@H]1C(=O)CC[C@@]4(O)[C@@H](C2)N(C)CC[C@]314 [Oxycodone, oxycodone]
Plasma concentrations alone versus combination of compound 1 and oxycodone ([1]; compound 1 10 mg/kg IP, oxycodone 3 mg/kg SC): equivalent
